The results in this text go back to publication PMC3773576 (Cell Research, 2013).

Test [1] addresses T1, KCNQ2 potassium channel (Kv7.2) (Homo sapiens, UniProt O43526). Briefly: whole-cell voltage clamp in CHO cells. The test is classed as cell-based.
Test [2] deals with T1, KCNQ2 potassium channel (Kv7.2). Put plainly: whole-cell voltage clamp in CHO cells, with VSD mutagenesis. It is filed as cell-based.

T1 sequence (O43526 whole entry): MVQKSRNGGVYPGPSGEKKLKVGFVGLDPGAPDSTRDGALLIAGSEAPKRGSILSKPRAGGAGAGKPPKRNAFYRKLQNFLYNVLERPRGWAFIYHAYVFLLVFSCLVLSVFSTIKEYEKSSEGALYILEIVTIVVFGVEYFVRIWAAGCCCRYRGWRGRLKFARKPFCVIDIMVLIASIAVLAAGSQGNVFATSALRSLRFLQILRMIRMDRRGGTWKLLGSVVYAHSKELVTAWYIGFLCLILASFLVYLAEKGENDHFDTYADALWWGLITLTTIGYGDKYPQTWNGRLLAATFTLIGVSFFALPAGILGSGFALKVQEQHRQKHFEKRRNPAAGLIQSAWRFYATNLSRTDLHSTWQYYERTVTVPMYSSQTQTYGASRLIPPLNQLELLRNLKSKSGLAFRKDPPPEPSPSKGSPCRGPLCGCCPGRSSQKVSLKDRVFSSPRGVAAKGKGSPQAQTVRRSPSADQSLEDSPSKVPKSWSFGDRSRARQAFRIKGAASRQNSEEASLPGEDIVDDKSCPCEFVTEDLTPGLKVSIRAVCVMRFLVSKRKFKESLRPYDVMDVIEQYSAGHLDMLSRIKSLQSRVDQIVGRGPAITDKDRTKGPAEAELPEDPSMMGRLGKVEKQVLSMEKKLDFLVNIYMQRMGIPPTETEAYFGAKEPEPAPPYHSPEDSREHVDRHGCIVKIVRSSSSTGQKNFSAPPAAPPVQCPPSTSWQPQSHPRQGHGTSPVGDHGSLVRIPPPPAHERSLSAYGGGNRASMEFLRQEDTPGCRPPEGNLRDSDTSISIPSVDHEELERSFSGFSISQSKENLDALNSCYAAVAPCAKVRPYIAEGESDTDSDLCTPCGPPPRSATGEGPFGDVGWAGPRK

For `O=C(Nc1ccc(Cl)nc1)c1ccccc1` [YGP1, N-(6-Chloropyridin-3-yl)benzamide], in test [1], the “whole-cell voltage clamp in CHO cells” value is given as “Electrophysiological recording showed that YGP1 still exhibited potentiation activity on KCNQ2 as ztz240 did”.
By EC50 is commonly meant the midpoint of the concentration-response curve. Read a high EC50 as weaker potency. `O=C(Nc1ccc(Cl)nc1)c1ccc(F)cc1` [ztz240] registered an EC50 in test [2] of 2810 nM.
